This is an account of results in US20040062743A1, “Acid-containing desensitization agents for teeth” (priority 2002, published 2004).

In series [1] the test system is horse serum diluted with physiological common-salt solution, 2 mM CaCl2 (simulated dentinal fluid). The series is described as follows: Measurement of the protein precipitation (weight of dried precipitate). It is filed as biochemical. The settings on record: for Precipitate: average of 5 measurements. How it is done: Furthermore, acids which also have calcium-precipitating properties in addition to protein-precipitating properties are particularly preferred. Protein and calcium-precipitating properties are detected in standardized tests. Protein precipitation is measured as described in Example 6, the acids to be examined in the solution described in Example 5 (2nd component) being present in a concentration of 0.2 M. The acid-containing solution is mixed with the protein solution described in Example 6 and the mass of the obtained precipitate is determined. According to the invention, acids which yield a pellet weight of >25 mg, preferably >30 mg and in particular >40 mg are preferred. The upper limit of the pellet weight is determined by the masses of the components used. Acids which yield a quantitative precipitation under the described conditions are particularly suitable according to the invention.
Furthermore, CaCl2 (2 mM) was added to the diluted protein solution in order to adjust the calcium-ion concentration to that of dentinal fluid.
500 μl of the protein solution was then reacted with […] of the composition to be tested and the mixture was left to stand for 30 minutes at room temperature, centrifuged and the obtained precipitates dried at 75° C. and weighed.
For protein precipitation, the solution (2nd component) described in Example 5 was used which was reacted with phosphonic acid in concentrations of 10 mM to 200 mM (cf. Table 1). 5 precipitations per concentration were carried out and then the average of the determinations was calculated.

With `C=C(COCCP(=O)(O)O)C(=O)O` [Example 1, 2-[4-(dihydroxyphosphoryl)-2-oxa-butyl]-acrylic acid], the melting point fell in the range of 119 to 120 °C. Besides, the “Protein precipitation (in words)” value in series [1] (150 mM acid) is on record as “quantitative”. For the same molecule, the Precipitate in series [1] (acid concentration 10 mM in solution (2nd component) of Example 5) is reported as 55.3 mg. The Precipitate in series [1] (acid concentration 25 mM in solution (2nd component) of Example 5) is on record as 58.2 mg. The Precipitate in series [1] (acid concentration 50 mM in solution (2nd component) of Example 5) is listed as 58.8 mg. The Precipitate in series [1] (acid concentration 75 mM in solution (2nd component) of Example 5) was 69.1 mg. For the same molecule, the Precipitate in series [1] (acid concentration 100 mM in solution (2nd component) of Example 5) is given as 70.8 mg. Also, in series [1] (acid concentration 150 mM in solution (2nd component) of Example 5), the Precipitate is 74.2 mg. For the same molecule, the Precipitate in series [1] (acid concentration 200 mM in solution (2nd component) of Example 5) was 72.3 mg.

By melting point is commonly meant the temperature of the solid-liquid transition.
